Reference: US20250332293A1, “METHOD FOR MANUFACTURING BIOCOMPATIBLE NANOPARTICLES WITH A PEPTIDE CORE EXHIBITING SECOND- AND THIRD-HARMONIC SIGNAL GENERATION” (MAX-PLANCK-GESELLSCHAFT ZUR FÖRDERUNG DER WISSENSCHAFTEN E. …, priority 2016, published 2025)
Residues, ends and D or L forms follow the SMILES beside them.

Assays:
[1] = Stability of SHG signal with regard to dilution; assay type: physicochemical; details: 10 mg/ml (versus 100 mg/ml)
Procedure: Panel A: LIVAGK peptides' SHG signal at a concentration of 100 mg/ml. Panel B: LIVAGK peptides' SHG signal at a concentration of 10 mg/ml.

[2] = Stability of SHG signal with regard to pH of the solvent; assay type: physicochemical
Procedure: The disassembly occurs within minutes (˜5 minutes) after incubation in pH 4.
Panel A: SHG signal after incubation of the nanoparticles for 72 hours in a buffer at pH 7. Same as in panel A, but at pH 6. Same as in panel A, but at pH 5. Panel D: same as in panel A, but at pH 4.
In FIG. 16a, the effect of different pH values on the SHG signal intensity are shown as a diagram. The nanoparticles were incubated at different pH values for 72 hours (n=5). Representative images showing SHG signal intensity after the nanoparticles were incubated in buffers at FIG. 16b, pH 7, FIG. 16c, pH 6, FIG. 16d, pH 5, and FIG. 16e, pH 4. Scalebar, 10 μm. Mean±s.d. n.s., not significant (Ordinary one-way ANOVA with Tukey's multiple comparisons).

[3] = molecular target: proteinase K (Parengyodontium album, UniProt P06873); assay: Digestion of self-assembled structures by proteinase K, SHG image time series; assay type: in vitro ADME; details: no polymer shell, aqueous solution with proteinase K, 0 to 60 minutes
proteinase K, sequence (P06873 106-384): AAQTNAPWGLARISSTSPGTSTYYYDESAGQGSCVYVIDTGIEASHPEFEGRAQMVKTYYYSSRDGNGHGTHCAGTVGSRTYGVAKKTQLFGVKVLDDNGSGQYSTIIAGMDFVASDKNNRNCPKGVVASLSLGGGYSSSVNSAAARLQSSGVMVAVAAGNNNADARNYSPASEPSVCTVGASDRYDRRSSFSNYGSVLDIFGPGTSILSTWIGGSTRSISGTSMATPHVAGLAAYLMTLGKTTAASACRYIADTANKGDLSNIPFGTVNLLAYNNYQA
Procedure: The digestion 201 is facilitated by a proteinase K.
The proteinase K digests the self-assembled structure into single phenylalanines.
In FIG. 6 the corresponding SHG images of a digestion 201 of self-assembled structures of triphenylalanines 41 suspended in aqueous solution with proteinase K is shown. Here, image A) has been taken at time 0 minutes, image B) at 20 minutes, C) at 40 minutes and image D) after 60 minutes after adding proteinase K to the solution.

| Compound | SHG signal on dilution [1] | assembly state / SHG signal at pH 4 ([2]; pH 4, 100 mg/ml) | time to disassembly after incubation in pH 4 ([2]; pH 4, 100 mg/ml) [minutes] | assembly state / SHG signal at pH 7 ([2]; pH 7, 100 mg/ml) | SHG signal during proteinase K digestion [3] |
| --- | --- | --- | --- | --- | --- |
| LIVAGK | no SHG signal can be observed | disassemble | ~5 | still assembled | – |
| N[C@@H](Cc1ccccc1)C(=O)N[C@@H](Cc1ccccc1)C(=O)N[C@@H](Cc1ccccc1)C(=O)O [triphenylalanine, Phe-Phe-Phe] (H-Phe-Phe-Phe-OH; N-terminus and C-terminus assumed) | – | – | – | – | decreasing over the course of time |
